Assay results taken from ChEMBL document CHEMBL1143312, “Design, synthesis, and evaluation in vitro of quinoline-8-carboxamides, a new class of poly(adenosine-diphosphate-ribose)polymerase-1 (PARP-1) inhibitor” (J Med Chem, 2009).

Biological target: Poly [ADP-ribose] polymerase 1 (Homo sapiens, UniProt P09874)
Test: Inhibition of human recombinant PARP1 by Trevigen colorimetric assay

Sequence of Poly [ADP-ribose] polymerase 1 (P09874 whole entry): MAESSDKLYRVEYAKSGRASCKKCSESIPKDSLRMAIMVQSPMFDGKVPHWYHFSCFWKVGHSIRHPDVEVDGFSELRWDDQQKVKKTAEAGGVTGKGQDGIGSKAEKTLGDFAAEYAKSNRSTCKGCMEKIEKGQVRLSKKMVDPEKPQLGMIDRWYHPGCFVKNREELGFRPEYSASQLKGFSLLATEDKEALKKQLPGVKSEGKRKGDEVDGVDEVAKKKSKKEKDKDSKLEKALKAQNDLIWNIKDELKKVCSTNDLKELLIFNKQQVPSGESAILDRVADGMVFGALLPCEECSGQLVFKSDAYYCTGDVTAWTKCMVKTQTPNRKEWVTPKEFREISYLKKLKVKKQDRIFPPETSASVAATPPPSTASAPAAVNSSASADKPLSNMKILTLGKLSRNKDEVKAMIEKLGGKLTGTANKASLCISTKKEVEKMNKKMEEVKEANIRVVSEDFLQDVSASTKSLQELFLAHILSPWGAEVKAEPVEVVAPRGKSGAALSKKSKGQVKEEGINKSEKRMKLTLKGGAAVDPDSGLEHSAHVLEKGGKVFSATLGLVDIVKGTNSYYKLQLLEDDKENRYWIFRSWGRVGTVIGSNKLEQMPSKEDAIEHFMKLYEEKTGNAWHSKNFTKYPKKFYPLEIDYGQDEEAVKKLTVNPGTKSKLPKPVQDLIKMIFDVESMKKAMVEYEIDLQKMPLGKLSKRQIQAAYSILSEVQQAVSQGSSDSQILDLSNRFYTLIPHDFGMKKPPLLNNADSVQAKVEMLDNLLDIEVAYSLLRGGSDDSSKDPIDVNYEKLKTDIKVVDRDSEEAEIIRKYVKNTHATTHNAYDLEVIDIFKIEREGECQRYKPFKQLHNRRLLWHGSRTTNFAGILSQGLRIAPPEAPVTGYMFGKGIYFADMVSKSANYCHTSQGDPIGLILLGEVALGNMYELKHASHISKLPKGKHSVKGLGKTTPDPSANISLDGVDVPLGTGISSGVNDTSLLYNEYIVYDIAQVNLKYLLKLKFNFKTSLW

IC50: 1.8 µM
Compound: Nc1cccc2c(=O)[nH]ccc12
